Results published in patent publication US7553969B1, “Substituted phenethylamine derivatives” (Chugai Seiyaku Kabushiki Kaisha, priority 1999, dated 2009).
pIC50: −log10 of the molar value. Where a SMILES comes first, the peptide text is derived from it. [ ]: non-standard residue; d: D form. The star is where a group is joined. NMeTyr(3-tBu) = CN[C@@H](Cc1ccc(O)c(C(C)(C)C)c1)C(=O)O; Tyr(3-tBu) = CC(C)(C)c1cc(C[C@H](N)C(=O)O)ccc1O; NMePhe(4-F) = CN[C@@H](Cc1ccc(F)cc1)C(=O)O; Tyr(3-F) = N[C@@H](Cc1ccc(O)c(F)c1)C(=O)O; Phe(4-F) = N[C@@H](Cc1ccc(F)cc1)C(=O)O; NMeF = CN[C@@H](Cc1ccccc1)C(=O)O; NMeV = CN[C@H](C(=O)O)C(C)C; NHiPr = CC(C)N*; NHPr = CCCN*

Tests used:
motilin receptor = target: T1, motilin receptor (Oryctolagus cuniculus, UniProt G1T803); assay: Motilin receptor binding test (125I motilin, rabbit duodenum protein sample); details: 125I motilin 25 pM, concentration reducing specific binding by 50%
T1 construct: homogenized in 50 mM Tris buffer to prepare a protein sample; from tissue; host or cells: rabbit duodenum homogenate (mucous membrane separated)
T1 sequence (G1T803 1-400): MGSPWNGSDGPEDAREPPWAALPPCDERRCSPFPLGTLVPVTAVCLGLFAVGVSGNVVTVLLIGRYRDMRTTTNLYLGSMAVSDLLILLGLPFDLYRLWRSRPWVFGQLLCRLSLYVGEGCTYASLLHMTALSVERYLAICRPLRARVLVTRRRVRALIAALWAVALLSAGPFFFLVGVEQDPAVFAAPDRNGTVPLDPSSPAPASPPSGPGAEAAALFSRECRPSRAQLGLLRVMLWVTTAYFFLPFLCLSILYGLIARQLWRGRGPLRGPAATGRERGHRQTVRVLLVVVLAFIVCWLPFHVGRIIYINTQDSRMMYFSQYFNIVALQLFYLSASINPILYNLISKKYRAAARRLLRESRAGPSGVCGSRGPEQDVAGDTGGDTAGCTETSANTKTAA
Outline: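 Radioligand binding of 25 pM 125I-motilin to rabbit duodenal mucosa homogenate in 50 mM Tris. Specific binding was defined by excess unlabelled motilin (10^−7 M). IC50 (nM) is the concentration cutting specific binding by 50%.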

[1] = system: specimen of longitudinal muscle in the duodenum extracted from a rabbit (motilin-induced contraction); assay: Action on the motilin-induced contraction of a specimen of longitudinal muscle in the duodenum extracted from a rabbit; details: Oryctolagus cuniculus, organ bath, Krebs solution 28° C., read-out: Contraction suppressing test, pA2 (converted)
Outline: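 Rabbit duodenal longitudinal strip in Krebs solution at 28° C, gassed 95% O2/5% CO2, contraction recorded isotonically under 1-g load. Contraction expressed relative to 10^−4 M acetylcholine as 100%. Activity given as pA2 against dose-dependent motilin-induced contraction.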

Compound `CC(C)[C@@H](C(=O)N(C)[C@@H](Cc1ccc(O)c(C(C)(C)C)c1)C(N)=O)N(C)C(=O)[C@@H](N)Cc1ccc(O)c(F)c1` [Example 27, Tyr(3-F)-N-Me-Val-N-Me-Tyr(3-tBu)-NH2] (H-[Tyr(3-F)]-[NMeV]-[NMeTyr(3-tBu)]-NH2) has a pIC50 (motilin receptor) of 8.92 and a Kb [1] of 2.51 nM.

`CC(C)[C@@H](C(=O)N[C@H](CNS(N)(=O)=O)Cc1ccc(O)c(C(C)(C)C)c1)N(C)C(=O)[C@@H](N)Cc1ccc(F)cc1` [Example 12, 2-(2-(2-amino-3-(4-fluorophenylpropanoyl-N-methylamino)-3-methyl)butyrylamino)-3-(3-tert-butyl-4-hydroxyphenyl)propylsulfamide] was tested, and the pIC50 (motilin receptor) was 9.28 and the Kb [1] was 0.501 nM.

With `CC(C)NC(=O)[C@H](Cc1ccc(O)c(C(C)(C)C)c1)NC(=O)[C@H](C(C)C)N(C)C(=O)[C@@H](N)Cc1ccc(F)cc1` [Example 120, Phe(4-F)-N-Me-Val-Tyr(3-tBu)-NH-i-Pr] (H-[Phe(4-F)]-[NMeV]-[Tyr(3-tBu)]-NHiPr) the pIC50 (motilin receptor) was 9.57 and the Kb [1] was 1 nM.

In the case of `CN[C@@H](Cc1ccc(F)cc1)C(=O)N(C)[C@H](C(=O)N[C@@H](Cc1ccc(O)c(C(C)(C)C)c1)C(N)=O)C(C)C` [Example 29, N-Me-Phe(4-F)-N-Me-Val-Tyr(3-tBu)-NH2] (H-[NMePhe(4-F)]-[NMeV]-[Tyr(3-tBu)]-NH2), the pIC50 (motilin receptor) was 9.35 and the Kb [1] was 2 nM.

Work on `CN(C(=O)[C@@H](N)Cc1ccc(F)cc1)[C@@H](Cc1ccccc1)C(=O)N(C)[C@@H](Cc1ccc(O)c(C(C)(C)C)c1)C(N)=O` [Example 155, Phe(4-F)-N-Me-Phe-N-Me-Tyr(3-tBu)-NH2] (H-[Phe(4-F)]-[NMeF]-[NMeTyr(3-tBu)]-NH2) yielded a pIC50 (motilin receptor) of 8.60 and a Kb [1] of 7.94 nM.

`CC(C)[C@@H](C(=O)N(C)[C@@H](Cc1ccc(O)c(C(C)(C)C)c1)C(N)=O)N(C)C(=O)[C@@H](N)Cc1ccc(F)cc1` [Example 1, Phe(4-F)-N-Me-Val-N-Me-Tyr(3-tBu)-NH2] (H-[Phe(4-F)]-[NMeV]-[NMeTyr(3-tBu)]-NH2) was tested, and the pIC50 (motilin receptor) was 9.05 and the Kb [1] was 1.58 nM.

`CCCNC(=O)[C@H](Cc1ccc(O)c(C(C)(C)C)c1)NC(=O)[C@H](C(C)C)N(C)C(=O)[C@@H](N)Cc1ccc(F)cc1` [Example 119, Phe(4-F)-N-Me-Val-Tyr(3-tBu)-NH-n-Pr] (H-[Phe(4-F)]-[NMeV]-[Tyr(3-tBu)]-NHPr) gave a pIC50 (motilin receptor) of 9.40 and a Kb [1] of 0.398 nM.

`CNC(=O)[C@H](Cc1ccc(O)c(C(C)(C)C)c1)NC(=O)[C@H](C(C)C)N(C)C(=O)[C@@H](N)Cc1ccc(F)cc1` [Example 31, Phe(4-F)-N-Me-Val-Tyr(3-tBu)-NHMe] (H-[Phe(4-F)]-[NMeV]-[Tyr(3-tBu)]-NHMe) gave a pIC50 (motilin receptor) of 9.10 and a Kb [1] of 0.316 nM.

Work on `CCN[C@@H](Cc1ccc(F)cc1)C(=O)N(C)[C@H](C(=O)N(CC)[C@@H](Cc1ccc(O)c(C(C)(C)C)c1)C(N)=O)C(C)C` [Example 41, N-Et-Phe(4-F)-N-Me-Val-N-Et-Tyr(3-tBu)-NH2] yielded a pIC50 (motilin receptor) of 8.51 and a Kb [1] of 3.98 nM.
